Test results taken from patent US20100204129A1, “USE OF A PEPTIDE AS A THERAPEUTIC AGENT” (priority 2008, published 2010).
Non-standard residues stand in square brackets, D forms with d. Residues, ends and D or L forms follow the SMILES beside them.

Tested on: drug-resistant Mycobacterium tuberculosis
Details: 5 micrograms per ml

SMILES: CC(C)C[C@H](NC(=O)[C@H](CC(C)C)NC(=O)[C@@H](Cc1c[nH]c2ccccc12)NC(=O)[C@H](Cc1ccccc1)NC(=O)[C@@H](Cc1c[nH]c2ccccc12)NC(=O)[C@H](CCC(N)=O)NC(=O)[C@H](CCC(N)=O)NC(=O)[C@@H]1CCCN1C(=O)[C@H](CCCCN)NC(=O)[C@@H]1CCCN1C(=O)[C@@H](CCCNC(=N)N)NC(=O)[C@@H]1CCCN1C(=O)CNC(=O)[C@H](CC(C)C)NC(=O)[C@H](CC(C)C)NC(=O)[C@H](Cc1ccc(O)cc1)NC(=O)CNC(=O)[C@H](C)NC(=O)[C@H](CO)NC(=O)[C@H](CC(N)=O)NC(=O)[C@H](CC(C)C)NC(=O)[C@@H](NC(=O)[C@H](Cc1c[nH]c2ccccc12)NC(=O)CN)[C@@H](C)O)C(N)=O [Spantide-I, Gly-Trp-Thr-Leu-Asn-Ser-Ala-Gly-Tyr-Leu-Leu-Gly-Pro-D-Arg-Pro-Lys-Pro-Gln-Gln-D-Trp-Phe-D-Trp-Leu-Leu-NH2] (H-GWTLNSAGYLLGP[dR]PKPQQ[dW]F[dW]LL-NH2)
- % inhibition: 100.0%
